Experimental data reported in patent US20260242320A1, “USE OF CANNABIDIOL DERIVATIVE IN PREPARATION OF MEDICAMENT” (priority 2023, published 2026).
Read-outs that look alike come from different tables or passages of the source.

Tests used:
[1] = test system: morphine-treated mice; assay: Morphine-induced behavioral sensitization; type: in vivo; details: 0.2 mg/kg i.p., mice
Procedure: Mice were placed into the test chamber (40×40×40 cm^3) for 60 min to habituate the chamber for three consecutive days. […] Locomotor activity was recorded daily for 60 min after the administration of drugs. Next, all the mice were subjected to a 7-day withdrawal period (days 8-14). Subsequently, mice were given morphine (5 mg/kg, i.p.), and locomotor activity was recorded to determine behavioral sensitization.

[2] = target: T1, CB2 Receptor (Homo sapiens, UniProt P34972); assay: cAMP measurement, forskolin-induced cAMP accumulation, CB2; type: cell-based
T1 construct: expressed in transfected cells; host or cells: GloSensor 22-F HEK293 cells
Procedure: (§1) GloSensor 22-F HEK293 cells were transfected with plasmids encoding different receptors (CB1 and CB2). After 24 h, HEK293 cells were seeded at a density of 5×10^4 cells per well in 96-well plates and incubated for 8 h; then, the medium was removed, and 200 μL of serum-free DMEM medium containing 2% GloSensor cAMP substrate (Promega) was added. After 2 h incubation, the transfected cells were stimulated with different concentrations of ligands together with […]. The luminescence was recorded using a Multimode Plate Reader (En Vision, PerkinElmer).

[3] = Pharmacokinetic profiles in brain and plasma after oral administration; type: in vivo, mice; details: 10 mg/kg p.o.
Procedure: Following administration, mice (BALB/c, male, 20-25 g) were sacrificed at 0.5, 1, 2, 3, and 4 h. The blood and brain tissue were collected and extracted with acetonitrile.

[4] = test system: BV-2 cellular viability; assay: Cell viability / cytotoxicity by crystal violet staining; type: cell-based; details: Mus musculus, BV-2, read-out: Cellular toxicity (IC50 inhibiting BV-2 cellular viability)
Procedure: 100 μL of culture medium were transferred to a black 96-well plate for later use. Following removal of old culture medium, 100 μL of 4% paraformaldehyde was added for fixation. Fixation was performed for 5 minutes. Paraformaldehyde was then removed, and 100 μL of 0.05% crystal violet was added. The resultant mixture was incubated for 15 minutes, after which time crystal violet was removed and the mixture was slowly rinsed with water three times. Next, 150 μL of ethanol was added, and the mixture was incubated for 15 minutes. After incubation, the absorbance was measured at 540 nm using a spectrophotometer. Viability (%)=100× Fluorescence values of the dosing group/Fluorescence values of the blank group.
Cell viability was determined by crystal violet staining. Briefly, BV-2 cells were treated as indicated in the NO assay. The media was removed, and then 4% paraformaldehyde was added to fix the cells for 5 min. Cells were stained with 100 μL 0.05% crystal violet for 15 min and washed with water 2 times. Next, 150 μL of ethanol was added to each well, and the plate was incubated for 15 min at room temperature. Absorbance at 540 nm was measured using a SYNERGY H1 Microplate Reader.

[5] = test system: LPS-induced proinflammatory factor nitric oxide (NO) in immunocompetent BV-2 cells; assay: NO assay: inhibition of LPS-induced NO overproduction in BV-2 cells; type: cell-based; details: Mus musculus, read-out: Antineuroinflammatory activity (IC50 inhibiting LPS-induced NO)
Procedure: BV-2 cells were seeded at a density of 5×10^4 cells per milliliter in 96-well plates. After 24 h incubation, the media was removed and changed to DMEM without FBS and penicillin-streptomycin. LPS (200 ng/mL) and different concentrations of compounds were added. After 24 h treatment, 100 μL of media was transferred to flat black 96-well micro fluor plates, and then, 10 μL of 0.05 mg/mL 2,3-diaminonaphthalene was added and incubated in the dark for 15 min. 5 μL of NaOH (3 M) was subsequently added to each well to quench the reaction. NO inhibition ratio was analyzed by a SYNERGY H1 Microplate Reader (BioTek Instruments, Carlsbad, CA, USA) with excitation at 360 nm and emission at 430 nm. The fluorescence value of the LPS-treated group was set as 100%.

[6] = target: T2, CB1 Receptor (Homo sapiens, UniProt P21554); assay: cAMP measurement, forskolin-induced cAMP accumulation, CB1; type: cell-based
T2 construct: expressed in transfected cells; host or cells: GloSensor 22-F HEK293 cells
Procedure: as §1

[7] = test system: LPS-induced IL-1β, TNF-α, IL-6, iNOS, IL-10 mRNA in BV-2 cells; assay: qRT-PCR of proinflammatory and M1/M2 marker mRNAs in LPS-treated BV-2 cells; type: cell-based; details: BV-2 cells
Procedure: Total RNA was extracted from cells or mouse brains using the RNeasy Mini Kit. Isolated RNA was reverse-transcribed into cDNA using an RT2 Easy First Strand cDNA Synthesis Kit following the manufacturer's protocols. PCR amplification was conducted using synthetic primers, SYBR Green, and a TOptical Real-Time qPCR Thermal Cycler (Analytik Jena, Thuringia, Germany). The data were analyzed by the […] method, and Rpl711 or Rpl27 was used as an internal control.

[8] = Pharmacokinetic profiles in brain and plasma after oral administration; type: in vivo, mice; details: male, BALB/c, mouse, 10 mg/kg p.o., read-out: B/P ratio
[9] = test system: morphine-dependent mice; assay: Naloxone-precipitated morphine withdrawal jumps; type: in vivo; details: 2 μg/kg, 20 μg/kg, 0.2 mg/kg i.p.
Procedure: Mice were intraperitoneally injected with an escalating dose of morphine three times daily for 3 days (5, 20, and 40 mg/kg) to induce addiction. On the fourth day, mice were given morphine (40 mg/kg) or vehicle (5 mL/kg). […] The withdrawal was precipitated by naloxone. Each mouse was placed into a transparent plastic box immediately, and the number of jumps was recorded for 15 min.

T1 sequence (P34972 whole entry): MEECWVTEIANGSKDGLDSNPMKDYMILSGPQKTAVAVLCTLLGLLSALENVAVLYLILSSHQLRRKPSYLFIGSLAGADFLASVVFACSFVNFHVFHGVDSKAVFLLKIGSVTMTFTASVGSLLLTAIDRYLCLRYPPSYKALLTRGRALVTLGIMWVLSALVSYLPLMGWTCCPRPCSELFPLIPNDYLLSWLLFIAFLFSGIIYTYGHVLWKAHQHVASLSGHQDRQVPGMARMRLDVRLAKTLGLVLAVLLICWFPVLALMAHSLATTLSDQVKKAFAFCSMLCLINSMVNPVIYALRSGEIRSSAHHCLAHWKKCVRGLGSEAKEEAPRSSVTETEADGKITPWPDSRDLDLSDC
T2 sequence (P21554 whole entry): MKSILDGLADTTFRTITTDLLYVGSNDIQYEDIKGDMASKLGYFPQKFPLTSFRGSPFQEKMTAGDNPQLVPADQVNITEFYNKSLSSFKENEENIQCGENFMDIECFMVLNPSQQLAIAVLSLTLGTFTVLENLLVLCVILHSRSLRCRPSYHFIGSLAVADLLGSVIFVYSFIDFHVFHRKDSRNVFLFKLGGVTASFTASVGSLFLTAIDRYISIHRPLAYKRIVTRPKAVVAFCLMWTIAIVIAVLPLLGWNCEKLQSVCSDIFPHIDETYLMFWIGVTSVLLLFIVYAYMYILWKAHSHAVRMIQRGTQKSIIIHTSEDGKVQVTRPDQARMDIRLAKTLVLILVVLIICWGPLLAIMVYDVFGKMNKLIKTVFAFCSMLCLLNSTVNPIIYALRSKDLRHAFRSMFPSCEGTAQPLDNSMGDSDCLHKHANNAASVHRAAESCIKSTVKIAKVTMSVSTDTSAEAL

With `C=C(C)[C@@H]1CCC(C)=C[C@H]1c1c(O)cc(CCCCC)cc1O` [CBD, (1′R,2′R)-5′-Methyl-4-pentyl-2′-(prop-1-en-2-yl)-1′,2′,3′,4′-tetra-hydro-[1,1′-biphenyl]-2,6-diol, reference compound] the “development of morphine-induced behavioral sensitization (induction period)” value [1] was “not obvious”, the “CB2 Receptor ΔEmax” value ([2]; HEK293 transfected with CB2, forskolin-induced cAMP) was 30.2 ± 0.9% and the “CB2 receptor activity” value ([2]; cAMP assay) was “slight CB1/CB2 receptor activity”. For the same molecule, the AUC0→t ([3]; brain, mice) was 66.7 ng·h/g, the “AUC0→∞” value ([3]; brain, mice) was 85.0 ng·h/g and the MRT ([3]; brain, mice) was 42 min. For the same molecule, the Tmax ([3]; brain, mice) was 30 min, the t1/2 ([3]; brain, mice) was 30 min and the Kp ([3]; male, BALB/c, mouse, brain / plasma, oral, read-out: B/P ratios within the first 3 h after administration) was < 1. It also gave a Kp at 0.5 h ([3]; male, BALB/c, mouse, brain / plasma, po, 0.5 h, read-out: B/P ratio) of 0.93 ± 0.176, a Kp at 1 h ([3]; male, BALB/c, mouse, brain / plasma, po, 1 h, read-out: B/P ratio) of 0.839 ± 0.144 and an IC50 [4] of 8.5 ± 0.9 µM. For the same molecule, the IC50 ([5]; BV-2 cells, LPS 200 ng/mL, 24 h) was 12.3 ± 3.1 µM, the “CB1 Receptor ΔEmax” value ([6]; HEK293 transfected with CB1, forskolin-induced cAMP) was 13.3 ± 0.1% and the “CB1 receptor activity” value ([6]; cAMP assay) was “slight CB1/CB2 receptor activity”. The “LPS-induced overexpression of IL-1β mRNA” value [7] was “inhibited IL-1β overexpression only at 10 μM”, the “LPS-induced overexpression of IL-6 mRNA” value [7] was “failed to inhibit” and the “LPS-induced overexpression of TNF-α mRNA” value [7] was “failed to inhibit”. The “LPS-induced IL-6 mRNA expression at 10 μM” value ([7]; 10 μM) was “augmented”, the Kp at 0.083 h ([8]; 0.083 h) was 0.864 ± 0.227 and the Kp at 0.25 h ([8]; 0.25 h) was 0.358 ± 0.106. The naloxone-precipitated withdrawal jumps [9] was “failed to significantly alleviate”.

With `C=C(C)[C@@H]1CCC(C)=C[C@H]1c1c(OC)cc(CCCCC)cc1OC` [Compound 1b, (1R,2R)-2′,6′-Dimethoxy-5-methyl-4′-pentyl-2-(prop-1-en-2-yl)-1,2,3,4-tetrahydro-1,1′-biphenyl] the IC50 [4] was > 200 µM and the IC50 ([5]; BV-2, 24 h) was > 200 µM.

`C=C(C)[C@@H]1CCC(C)=C[C@H]1c1c(O)cc(CCCCC)cc1OCC` [Compound 2a, (1′ R,2′R)-6-Ethoxy-5′-methyl-4-pentyl-2′-(prop-1-en-2-yl)-1′,2′,3′,4′-tetrahydro-[1,1′-biphenyl]-2-ol] showed an IC50 [4] of 176 ± 7.4 µM and an IC50 ([5]; BV-2, 24 h) of 167 ± 16.9 µM.

In the case of `C=C(C)[C@@H]1CCC(C)=C[C@H]1c1c(OCC)cc(CCCCC)cc1OCC` [Compound 2b, (1R,2R)-2′,6′-Diethoxy-5-methyl-4′-pentyl-2-(prop-1-en-2-yl)-1,2,3,4-tetrahydro-1,1′-biphenyl], the IC50 [4] is reported as > 200 µM and the IC50 ([5]; BV-2, 24 h) is reported as > 200 µM.

With `C=C(C)[C@@H]1CCC(C)=C[C@H]1c1c(O)cc(CCCCC)cc1OCCC` [Compound 3a, (1′R,2′R)-5′-Methyl-4-pentyl-2′-(prop-1-en-2-yl)-6-propoxy-1′,2′,3′,4′-tetrahydro-[1,1′-biphenyl]-2-ol] the IC50 [4] was > 200 µM and the IC50 ([5]; BV-2, 24 h) was > 200 µM.

In the case of `C=C(C)[C@@H]1CCC(C)=C[C@H]1c1c(OCCC)cc(CCCCC)cc1OCCC` [Compound 3b, (1R,2R)-5-Meth-yl-4′-pentyl-2-(prop-1-en-2-yl)-2′,6′-dipropoxy-1,2,3,4-tetrahydro-1,1′-biphenyl], the IC50 [4] is reported as > 200 µM and the IC50 ([5]; BV-2, 24 h) is reported as > 200 µM.

`C=CCOc1cc(CCCCC)cc(O)c1[C@@H]1C=C(C)CC[C@H]1C(=C)C` [Compound 4a, (1′R,2′R)-6-(Allyloxy)-5′-methyl-4-pentyl-2′-(prop-1-en-2-yl)-1′,2′,3′,4′-tetrahydro-[1,1′-biphenyl]-2-ol] showed an IC50 [4] of 71.5 ± 9.4 µM and an IC50 ([5]; BV-2, 24 h) of 59.8 ± 15.6 µM.

In the case of `C=CCOc1cc(CCCCC)cc(OCC=C)c1[C@@H]1C=C(C)CC[C@H]1C(=C)C` [Compound 4b, (1R,2R)-2′,6′-Bis(allyloxy)-5-methyl-4′-pentyl-2-(prop-1-en-2-yl)-1,2,3,4-tetrahy-dro-1,1′-biphenyl], the IC50 [4] is reported as > 200 µM and the IC50 ([5]; BV-2, 24 h) is reported as > 200 µM.

`C#CCOc1cc(CCCCC)cc(O)c1[C@@H]1C=C(C)CC[C@H]1C(=C)C` [Compound 5a, (1′R,2′R)-5′-Methyl-4-pentyl-2′-(prop-1-en-2-yl)-6-(prop-2-yn-1-yloxy)-1′,2′,3′,4′-tetrahydro-[1,1′-biphenyl]-2-ol] showed an IC50 [4] of 65 ± 7.9 µM and an IC50 ([5]; BV-2, 24 h) of 99.6 ± 16.3 µM.

For `C#CCOc1cc(CCCCC)cc(OCC#C)c1[C@@H]1C=C(C)CC[C@H]1C(=C)C` [Compound 5b, (1R,2R)-5-Methyl-4′-pentyl-2-(prop-1-en-2-yl)-2′,6′-bis(prop-2-yn-1-yloxy)-1,2,3,4-tetrahydro-1,1′-biphenyl], the IC50 [4] was > 200 µM and the IC50 ([5]; BV-2, 24 h) was > 200 µM.

For `C=C(C)[C@@H]1CCC(C)=C[C@H]1c1c(O)cc(CC)cc1O` [Compound 12a, (1′R,2′R)-4-Ethyl-5′-methyl-2′-(prop-1-en-2-yl)-1′,2′,3′,4′-tetra-hydro-[1,1′-biphenyl]-2,6-diol], the IC50 [4] was 22.6 ± 1.6 µM and the IC50 ([5]; BV-2, 24 h) was 2.5 ± 0.3 µM.

For `C=C(C)[C@@H]1CCC(C)=C[C@H]1c1c(O)cc(CCC)cc1O` [Compound 12b, (1′R,2′R)-5′-Methyl-2′-(prop-1-en-2-yl)-4-propyl-1′,2′,3′,4′-tetra-hydro-[1,1′-biphenyl]-2,6-diol, reference compound], the IC50 [4] was 18.3 ± 4.4 µM and the IC50 ([5]; BV-2, 24 h) was 5.3 ± 2.9 µM.

For `C=C(C)[C@@H]1CCC(C)=C[C@H]1c1c(O)cc(CCCC)cc1O` [Compound 12c], the IC50 [4] was 11.1 ± 2.8 µM and the IC50 ([5]; BV-2, 24 h) was 5 ± 3.5 µM.

Work on `C=C(C)[C@@H]1CCC(C)=C[C@H]1c1c(O)cc(CCCCCC)cc1O` [Compound 12e, (1′R,2′R)-4-Hexyl-5′-methyl-2′-(prop-1-en-2-yl)-1′,2′,3′,4′-tetra-hydro-[1,1′-biphenyl]-2,6-diol] yielded an IC50 [4] of 19 ± 0.5 µM and an IC50 ([5]; BV-2, 24 h) of 2.1 ± 0.4 µM.

In the case of `C=C(C)[C@@H]1CCC(C)=C[C@H]1c1c(O)cc(CCCCCCC)cc1O` [Compound 12f, (1′R,2′R)-4-Heptyl-5′-methyl-2′-(prop-1-en-2-yl)-1′,2′,3′,4′-tetra-hydro-[1,1′-biphenyl]-2,6-diol], the IC50 [4] is reported as 14.1 ± 0.7 µM and the IC50 ([5]; BV-2, 24 h) is reported as 42 ± 9.3 µM.

With `C=C(C)[C@@H]1CCC(C)=C[C@H]1c1c(O)cc(CCCCCCCC)cc1O` [Compound 12g, (1′R,2′R)-5′-Methyl-4-octyl-2′-(prop-1-en-2-yl)-1′,2′,3′,4′-tetra-hydro-[1,1′-biphenyl]-2,6-diol] the IC50 [4] was 26.2 ± 5.2 µM and the IC50 ([5]; BV-2, 24 h) was 174 ± 33 µM.

With `C=C(C)[C@@H]1CCC(C)=C[C@H]1c1c(O)cc(CCCCCCCCCCCC)cc1O` [Compound 12h, (1′R,2′R)-4-Dodecyl-5′-methyl-2′-(prop-1-en-2-yl)-1′,2′,3′,4′-tet-rahydro-[1,1′-biphenyl]-2,6-diol] the IC50 [4] was > 200 µM and the IC50 ([5]; BV-2, 24 h) was > 200 µM.

Work on `C=C(C)[C@@H]1CCC(C)=C[C@H]1c1c(O)cc(C(C)n2ccnc2)cc1O` (stereo partly drawn) [Compound 19c, (1′R,2′R)-4-(1-(1H-Imidazole-1-yl)ethyl)-5′-methyl-2′-(prop-1-en-2-yl)-1′,2′,3′,4′-tetrahydro-[1,1′-biphenyl]-2,6-diol] yielded an IC50 [4] of 32.6 ± 3.2 µM and an IC50 ([5]; BV-2, 24 h) of 4.4 ± 0.5 µM.
